These results are taken from ChEMBL document CHEMBL4842322, “A naphthalimide-polyamine conjugate preferentially accumulates in hepatic carcinoma metastases as a lysosome-targeted antimetastatic agent” (Eur J Med Chem, 2021).

One data set deals with MCF7. As to the kind of experiment: Cytotoxicity against human MCF7 cells assessed as inhibition of cell growth incubated for 48 hrs by MTT assay. Type of data set: functional, cell-based. The note with it: MCF7, 48 h. Background: Formazan colour is commonly taken as a measure of viable cells.
A short description of data set [1]: Selectivity index, ratio of IC50 for human HL7702 cells to IC50 for human Huh-7 cells. In kind it is toxicity. The note with it: HL7702 cells and Huh-7 cells, read-out: Ratio IC50.
Data set [2] can be described thus: Antitumor activity against human HCC cells xenografted in BALB/c mouse assessed as inhibition of tumor weight at 1 mg/kg, iv administered once daily for 7 days. In kind it is functional. The note with it: 168 h, time 7 day. Background: Xenograft models place foreign cells or tissue in a host animal.
The nature of data set [3]: Antimetastatic activity against human HCC cells xenografted in BALB/c mouse assessed as reduction lung metastatic nodules at 3 mg/kg, iv administered once every 2 days for 14 days. The note with it: 336 h, time 14 day. Type of data set: functional.
Data set [4] has as its system HepG2. Briefly: Cytotoxicity against human HepG2 cells assessed as reduction in cell viability at 5 to 15 uM incubated for 24 hrs in presence of polyamine transporter inhibitor, Spd by MTT assay. Type of data set: functional, cell-based. The following applies: dose 5-15 µM.
Data set [5] can be described thus: Upregulation of PAO expression in human HepG2 cells at 10 uM measured after 24 hrs relative to control. Type of data set: functional.
The test system of data set [6] is HepG2. As to the kind of experiment: Downregulation of Putrescine contents in human HepG2 cells measured after 24 hrs by HPLC analysis. Type of data set: functional, cell-based.
Data set [7] relates to Huh-7. As to the kind of experiment: Downregulation of Spermine contents in human Huh-7 cells measured after 24 hrs by HPLC analysis. In kind it is functional, cell-based.
Data set [8] is described as follows: Antitumor activity against human HCC cells xenografted in BALB/c mouse assessed as tumor volume administered iv once daily for 7 days measured on day 7 (reference value: 910 mm3). Type of data set: functional. The following applies: time 7 day.
The nature of data set [9]: Toxicity in BALB/c mouse xenografted with human HCC cells assessed as body weight at 1 to 5 mg/kg, iv administered once daily for 7 days. Type of data set: organism-based. The following applies: in vivo, 168 h, dose 1-5 mg/kg, time 7 day.
A short description of data set [10]: Toxicity in BALB/c mouse xenografted with human HCC cells assessed as effect on heart weight index at 1 to 5 mg/kg, iv administered once daily for 7 days. In kind it is organism-based. The following applies: in vivo, 168 h, dose 1-5 mg/kg, time 7 day.
Data set [11] is described as follows: Toxicity in BALB/c mouse xenografted with human HCC cells assessed as effect on liver weight index at 1 to 5 mg/kg, iv administered once daily for 7 days. The note with it: in vivo, 168 h, dose 1-5 mg/kg, time 7 day. In kind it is organism-based.
A short description of data set [12]: Toxicity in BALB/c mouse xenografted with human HCC cells assessed as effect on body weight at 1 to 5 mg/kg, iv administered once every 2 days for 14 days. Type of data set: organism-based. The following applies: in vivo, 336 h, dose 1-5 mg/kg, time 14 day.
Data set [13] in a line: Drug uptake in lysosomes of human HepG2 cells at 10 uM incubated for 8 hrs by Lyso-tracker dye based laser confocal microscopy. In kind it is ADME, subcellular, Lysosome. The following applies: hepg2, 8 h.
The subject of data set [14] is A549. Briefly: Inhibition of tumor metastasis in cisplatin-resistant human A549 cells assessed as downregulation of HMGB1 protein expression level measured after 24 hrs by western blot analysis. In kind it is functional, cell-based. The following applies: dose 5-15 µM. In general terms: In western blotting, separated proteins are transferred to a membrane and probed.

The subject of data set [15] is A549. As to the kind of experiment: Inhibition of tumor metastasis in cisplatin-resistant human A549 cells assessed as downregulation of LC3-II protein expression level at 5 to 15 uM measured after 24 hrs by western blot analysis. Type of data set: functional, cell-based. The following applies: dose 5-15 µM.
The subject of data set [16] is A549. Briefly: Inhibition of tumor metastasis in cisplatin-resistant human A549 cells assessed as upregulation of LC3-I protein expression level at 5 to 15 uM measured after 24 hrs by western blot analysis. Type of data set: functional, cell-based. The following applies: dose 5-15 µM.
The subject of data set [17] is HepG2. Briefly: Inhibition of tumor metastasis in human HepG2 cells assessed as upregulation of SSAT protein expression level at 5 to 15 uM measured after 24 hrs by western blot analysis. Type of data set: functional, cell-based. The note with it: dose 5-15 µM.
Data set [18] has as its system A549. Briefly: Inhibition of tumor metastasis in cisplatin-resistant human A549 cells assessed as upregulation of p62 protein expression level at 5 to 15 uM measured after 24 hrs by western blot analysis. Type of data set: functional, cell-based. The note with it: dose 5-15 µM.
Data set [19] has as its system Huh-7. Briefly: Potency index, ratio of amonafide IC50 to test compound IC50 for human Huh-7 cells by MTT assay. Type of data set: functional.
Data set [20] can be described thus: Ratio of cisplatin IC50 to test compound IC50 for human A549 cells by MTT assay. In kind it is functional.
A short description of data set [21]: Ratio of amonafide IC50 to test compound IC50 for cisplatin-resistant human A549 cells by MTT assay. In kind it is functional.

In general, IC50 refers to the concentration that gives 50% inhibition. What is called inhibition in vivo is the drop in the measured response relative to a control, in per cent.

The source made the active and inactive calls. The calls are words filed in the database; no cut-off is given here.

Regarding `NCCCCNCCCCNCCCCN1C(=O)c2cccc3cc(NC(=O)CN)cc(c23)C1=O`, in the data set with MCF7, the IC50 stood at 16.2 µM. For the same molecule, in data set [1], the selectivity ratio was found to be 6.43. Moreover, in [2], the inhibition in vivo at 1 mg/kg was determined as 58.5%. The inhibition in vivo at 3 mg/kg in [3] is 65.5%. In addition, in the data set on HepG2 [4], the result was inactive. Moreover, the “fold change (FC)” value in data set [5] stood at 1.5. In addition, the inhibition result in the data set on HepG2 [6], in the data set with Huh-7 [7], with A549 [15], in the data set on A549 [16], with HepG2 [17] and with A549 [18] was “Active” throughout. The Activity was 400 mm3 in data set [8]; “Non-Toxic” in data set [9]; “Non-Toxic” in [10]; “Non-Toxic” in data set [11]; “Non-Toxic” in [12]. Further, the Drug uptake result in data set [13] was “Active”. Also, the inhibition result in the data set with A549 [14] was “Dose-Dependent Effect”. The “Ratio IC50” value with Huh-7 [19] is 8.69; in [20], 0.5; in data set [21], 0.62.
